# Read-outs that look alike come from different tables or passages of the source.
# Tests used:
# [1] = tested on: Candida albicans; assay: Fungal susceptibility test, broth microdilution MIC; format: cell-based; conditions: microdilution assay
# Description: Fungal susceptibility test—The fungal susceptibility test was carried out with a compound concentration series as described. Li et al., “Cisplatin Protects Mice From Challenge of Cryptococcus neoformans by Targeting the Prp8 Intein,” Emerging Microbes & Infections 8(1):895-908 (2019), which is hereby incorporated by reference in its entirety. The broth microdilution method was used to determine the compound MIC values against C. neoformans. In brief, serial 2-fold dilutions of the 6G-318SS (20 to 0.03 μg/ml) were made in 100 μl RPMI-1640 medium with MOPS in 96-well U-bottom plates. The C. neoformans H99 strain (100 μl of 0.5×10^5/ml) in log phase was added to each well. […] The MIC break-point was defined as no visible fungal growth by naked eye or by determining the 90% growth inhibition using absorbance at 630 nm, compared with no inhibitor control in a 96-well plate.
# C. albicans, a fungus without the Prp8 intein, was also used as a control.
# [2] = tested on: C. neoformans H99 strain transformed with empty vector, WT Prp8 or AAAA mutant; assay: Resistance study, MIC in H99 overexpressing Prp8 intein; format: cell-based, Cryptococcus neoformans
# Description: For resistance studies, C. neoformans H99 strain transformed with an empty pXL1-PTEF1 vector, the Prp8-pXL1-PTEF1 (WT Prp8) construct, or the AAAA mutant were used, as described. Li et al., “Cisplatin Protects Mice From Challenge of Cryptococcus Neoformans by Targeting the Prp8 Intein,” Emerging Microbes & Infections 8(1):895-908 (2019), which is hereby incorporated by reference in its entirety. MICs for selected compounds were determined for these transformed cells as described above.
# [3] = tested on: C. neoformans H99; assay: Checkerboard assay; format: cell-based, Cryptococcus neoformans
# Description: Compounds were initially dissolved in DMSO and diluted in RPMI-1640-MOPS media four times the targeted final concentration and 50 μl was added per well. The second compound was similarly diluted and 50 μl was added per well, to a final volume of 100 μl/well. C. neoformans […] inoculum (100 μl) prepared from freshly grown cultures and diluted to an absorbance of 0.1 at 530 nm in water and further diluted (1:500) in RPMI-1640-MOPS was added to each well. To determine the fungicidal concentration of a compound, the wells with no visible growth were serially diluted, plated on SDA, and incubated at 30° C. for 48-72 h for the recovery of colony-forming units. Additionally, the cell density of treated and untreated wells was also estimated by reading absorbance at 630 nm using an EL808 reader (Bio-Tek). Percentage of inhibition compared to that of the no-drug-control well was calculated. […] Fractional inhibitory concentration (FIC) index value is calculated as the […]. The FIC index value is then used to categorize the interaction of the two compounds tested. […] Doern, C., “When Does 2 plus 2 Equal 5?A Review of Antimicrobial Synergy Testing,” Journal of Clinical Microbiology 52(12):4124-4128 (2014), which is hereby incorporated by reference in its entirety.
# [4] = tested on: C. neoformans H99 strain; assay: Fungal susceptibility test, broth microdilution MIC; format: cell-based, Cryptococcus neoformans; conditions: for MIC: Cryptococcus neoformans, H99STRAIN
# How it was run: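 Compound MICs were determined by broth microdilution using a compound concentration series.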
# [5] = target: C1A/H62A/D95A/H169A (AAAA) Prp8 intein mutant; assay: Surface plasmon resonance (SPR), AAAA mutant; format: binding, Cryptococcus gattii
# [6] = target: Prp8 intein (Cryptococcus gattii, UniProt E6R027); assay: MIG-Prp8 in-gel splicing assay; format: biochemical; conditions: E. coli lysate, TCEP-triggered
# Description: The MIG-Prp8 and Prp8-GFP in-gel splicing assays—The MIG Prp8 and Prp8-GFP splicing assays were carried out as described. […] The samples were analyzed in SDS-PAGE without boiling. The gels were quantified using GFP fluorescence and Coomassie blue staining with the Bio-Rad Gel Doc EZ.
# This reporter system, MIG-Prp8, comprising a fusion protein of the Prp8 intein flanked by maltose binding protein (MBP) and green fluorescent protein (GFP), allowed observation of functional Prp8 intein splicing in Escherichia coli lysate. […] C-terminal cleavage product (CC; GFP) could also be visualized.
# [7] = tested on: C. neoformans (H99); assay: In vivo preliminary efficacy study, intranasal infection of BALB/c mice; design: species or system Cryptococcus neoformans; conditions: 75 mg/kg oral gavage once daily
# Description: FIG. 7 illustrates efficacy of 6G318S in mouse models. BALB/c mice (5-6 wk old, male and female were dosed orally by either vehicle control (VC) or 6G318S-75 mg/kg once daily for 5 days. On day 5, all mice were euthanized, lungs were collected, weighed and homogenized in RPMI-1640-MOPS media. Serial 10-fold dilution of the homogenate is made and a volume of 100 ul is plated on to Sabouraud Dextrose-agar plates with antibiotics. Colonies were counted on day 3 and normalized to weight of the lung.
# Treatment was given for 6 days. On day 6 few mice were euthanized to check the […] in lungs.
# [8] = target: T1, C1A Prp8 intein mutant (Cryptococcus gattii, UniProt E6R027, C1531A); conditions: C1A versus WT, SPR
# T1 sequence (E6R027 1531-1700 C1531A): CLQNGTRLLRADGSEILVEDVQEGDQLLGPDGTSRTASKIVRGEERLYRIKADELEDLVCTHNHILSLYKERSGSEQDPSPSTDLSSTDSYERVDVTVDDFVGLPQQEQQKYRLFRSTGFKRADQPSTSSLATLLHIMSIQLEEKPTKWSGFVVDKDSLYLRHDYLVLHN
# Description: The Prp8 intein and mutants were immobilized onto a ProteOn™ GLH sensor chip (2,500-7,000 RU) (Bio-Rad). A 3-fold dilution series of compounds was injected as the analytes. A blank surface blocked by ethanolamine was used as the control surface. The experiment was carried out at a flow rate of 100 μl/min using a PBSTD buffer containing 1×PBS, 0.005% surfactant P20, and 5% DMSO. Association (ka) and dissociation (kd) rates, as well as the dissociation constant (KD), were obtained by global fitting of the SPR data from multiple concentrations to a simple 1:1 Langmuir binding model, using the ProteOn Manager software suite (Bio-Rad).
structure (smiles),measurement,setting,value
"O=C(Nc1ccc(F)cc1)c1nnsc1S(=O)(=O)c1ccc(Cl)cc1 [6G-318S, 5-[(4-chlorophenyl)sulfonyl]-N-(4-fluorophenyl)-1,2,3-thiadiazole-4-carboxamide]",MIC,[1],5 µg/mL
same,MIC with empty vector or AAAA mutant Prp8 intein-transformed H99 cells,[2],identical MIC values
same,increase of MIC in H99 transformed with WT Prp8 intein,[2]; compared to H99 with empty vector or AAAA mutant,4 fold
same,MIC,"[3]; Cryptococcus neoformans, H99, 48 h",1 µg/mL
same,Effect,[3]; combination 6G-318S + 5-FC,Additive (>0.5 to 1 is additive)
same,MIC-comb,"[3]; combination 6G-318S + 5-FC, well D6",0.500 µg/mL
same,Effect,[3]; combination 6G-318S + AmB,Synergistic (FIC index value of ≤0.5 is considered as synergy)
same,MIC-comb,"[3]; combination 6G-318S + AmB, well F6",0.125 µg/mL
same,Effect,[3]; combination 6G-318S + IZ,Additive (>0.5 to 1 is additive)
same,MIC-comb,"[3]; combination 6G-318S + IZ, well D6",0.500 µg/mL
same,Effect,[3]; combination 6G-318S + Vor,Indifferent (>1 to 4 is indifferent)
same,MIC-comb,"[3]; combination 6G-318S + Vor, well G3",0.063 µg/mL
same,MIC,"[4]; C. neoformans H99, microbroth dilution, read-out: MIC H99",1.56 µM
same,MIC,"[4]; C. neoformans and other related species, read-out: minimum inhibitory concentration (MIC) 90",0.6 to 1 µg/mL
same,MIC,"[4]; H99 strain, 48 h, 30° C., read-out: MIC C. neoformans",0.62 µg/mL
same,MIC C. neoformans,"[4]; H99 strain, 48 h, 30° C.",0.6 µg/mL
same,KD AAAA,[5],completely lost binding affinity
same,inhibition of MIG-Prp8 splicing,[6],accumulation of the MIG-Prp8 precursor PP and decrease of LE product in a dose-dependent manner
same,fungal cells in lungs versus vehicle controls,[7],indication of reduction of fungal cells in lungs
same,reduction of binding affinity by Cys1 to alanine mutation,[8],~3 fold

# Source: patent publication US20230233533A1, “COMPOSITIONS, METHODS OF TREATING AND PREVENTING FUNGAL INFECTIONS, AND METHODS OF INHIBITING PRP8 INTEIN EXPRESSION” (Health Research, Inc., priority 2020, published 2023)
